In BindingDB's records for patent US20250313563 (The Broad Institute, 2025):
pIC50: −log10 of the molar value. “And” between values parts separate entries of the source, which are not always exact repeats. Equal entries are not always repeated.

What was measured:
[1] = molecular target: Glycogen synthase kinase-3 alpha (Homo sapiens, UniProt P49840); test: TR-FRET Assay
How it was run: (§1)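 30 min preinc w/ cpd in assay buffer → kinase rxn → EDTA quench → add detection mix (40 nM SA-d2, 2 nM Tb-pSer641 Ab) → TR-FRET read.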

[2] = molecular target: Glycogen synthase kinase-3 beta (Homo sapiens, UniProt P49841); test: TR-FRET Assay
Glycogen synthase kinase-3 beta, sequence (P49841 whole entry): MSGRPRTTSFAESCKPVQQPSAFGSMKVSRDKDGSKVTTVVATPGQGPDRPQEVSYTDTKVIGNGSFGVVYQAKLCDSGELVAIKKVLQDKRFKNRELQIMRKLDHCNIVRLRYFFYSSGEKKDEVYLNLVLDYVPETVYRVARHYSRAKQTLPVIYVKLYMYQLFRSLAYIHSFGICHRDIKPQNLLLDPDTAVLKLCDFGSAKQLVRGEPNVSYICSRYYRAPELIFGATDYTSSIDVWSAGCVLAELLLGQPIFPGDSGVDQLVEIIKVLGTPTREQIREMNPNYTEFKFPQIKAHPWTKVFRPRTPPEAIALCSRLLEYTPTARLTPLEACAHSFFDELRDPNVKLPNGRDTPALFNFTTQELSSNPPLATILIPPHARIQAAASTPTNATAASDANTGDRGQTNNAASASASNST
How it was run: as §1

Glycogen synthase kinase-3 alpha, sequence (P49840 whole entry): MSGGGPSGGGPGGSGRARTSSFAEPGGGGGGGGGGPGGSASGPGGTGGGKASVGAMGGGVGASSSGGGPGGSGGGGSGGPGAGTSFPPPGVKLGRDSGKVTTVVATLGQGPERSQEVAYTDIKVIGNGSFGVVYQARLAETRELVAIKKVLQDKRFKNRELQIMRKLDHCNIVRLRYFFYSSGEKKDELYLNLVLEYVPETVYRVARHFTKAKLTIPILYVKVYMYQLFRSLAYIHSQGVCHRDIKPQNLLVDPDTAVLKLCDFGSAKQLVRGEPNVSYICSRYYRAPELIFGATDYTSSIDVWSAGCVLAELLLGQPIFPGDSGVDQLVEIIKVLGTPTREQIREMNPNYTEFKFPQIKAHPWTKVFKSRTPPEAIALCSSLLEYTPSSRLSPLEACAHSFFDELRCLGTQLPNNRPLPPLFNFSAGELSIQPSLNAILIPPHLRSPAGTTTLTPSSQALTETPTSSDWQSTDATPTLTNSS

| SMILES | pIC50 [1] | pIC50 [2] |
| --- | --- | --- |
| CC1(C)CC(=O)C2=C(C1)NC1=C(CN=N1)[C@@]21CCOC2(CCC2)C1 [US20250313563, Compound 897755] | 5.30 to 6.00 | 5.30 to 6.00 |
| CC[C@@]1(c2ccccc2)C2=CN=NC2NC2=C1C(=O)C[C@H](c1ccccc1)C2 (stereo partly specified) [US20250313563, Compound 791264] | 6.00 to 7.00 | < 5.30 |
| CC1(C)CC(=O)C2=C(C1)NC1=C(CN=N1)[C@]21CCN(S(=O)(=O)c2cccc(F)c2)C1 [US20250313563, Compound 943488] | > 7.00 | > 7.00 |
| CC1(C)CC(=O)C2=C(C1)NC1=C(CN=N1)C2(C)c1cc(Cl)ccc1F (stereo unspecified) [US20250313563, Compound 810377] | 6.00 to 7.00 | 5.30 to 6.00 |
| CCC1(c2cccc(-c3ccncc3F)c2)C2=C(CC(C)(C)NC2=O)NC2N=NC(C)=C21 (stereo unspecified) [US20250313563, Compound 945722] | > 7.00 | > 7.00 |
| CC1(C)CC(=O)C2=C(C1)NC1=C(CN=N1)C21CC2(COC2)C1 [US20250313563, Compound 912168] | < 5.30 | < 5.30 |
| Cc1ncc(S(=O)(=O)N2CCC3(CC2)C2=C(N=NC2)NC2=C3C(=O)CC(C)(C)C2)o1 [US20250313563, Compound 947611] | > 7.00 and 6.00 to 7.00 | > 7.00 and 6.00 to 7.00 |
| CC1(C)CC(=O)C2=C(C1)NC1=C(CN=N1)C21CCN(S(=O)(=O)c2cnn(-c3ccccc3)c2)CC1 [US20250313563, Compound 947904] | > 7.00 | > 7.00 |
| CC1(C)CC(=O)C2=C(C1)NC1=C(CN=N1)[C@@]21COC2(CN(C(=O)[C@H]3CC3(F)F)C2)C1 [US20250313563, Compound 948217] | 6.00 to 7.00 | 5.30 to 6.00 |
| CCC1(c2cccc(C(F)F)c2)C2=C(CC(C)(C)NC2=O)NC2N=NC(C)=C21 (stereo unspecified) [US20250313563, Compound 947865] | > 7.00 | > 7.00 |
| CC[C@]1(c2cccc(N(C)c3ncccn3)c2)C2=C(CC(C)(C)NC2=O)NC2N=NC(C(F)F)=C21 (stereo partly specified) [US20250313563, Compound 951736] | > 7.00 | 6.00 to 7.00 |
| CC[C@@]1(c2cccc(-c3cnn(C)c3C)c2)C2=C(CC(C)(C)NC2=O)NC2N=NC(C)=C21 (stereo partly specified) [US20250313563, Compound 945731] | > 7.00 | > 7.00 |
| CCC1(c2cccc(S(=O)(=O)C3CC3)c2)C2=C(CC(C)(C)NC2=O)NC2N=NC(C)=C21 (stereo unspecified) [US20250313563, Compound 947562] | > 7.00 | > 7.00 |
| CC(C)[C@H]1C[C@@]2(CCO1)C1=C(N=NC1)NC1=C2C(=O)CC(C)(C)C1 [US20250313563, Compound 884014] | 5.30 to 6.00 | < 5.30 |
| CC1(C)CC(=O)C2=C(C1)NC1=C(CN=N1)[C@@]21COC2(CN(C(=O)Cc3ccccc3)C2)C1 [US20250313563, Compound 948037] | > 7.00 | > 7.00 |
| CC1(C)CC(=O)C2=C(C1)NC1=C(CN=N1)C21COC2(CN(C(=O)c3cccc(F)c3)C2)C1 (stereo unspecified) [US20250313563, Compound 947283] | > 7.00 | > 7.00 |
| CCC1(c2cccc(C(F)(F)F)c2)C2=C(N=NC2)NC2=C1C(=O)CC2 (stereo unspecified) [US20250313563, Compound 949639] | 6.00 to 7.00 | 6.00 to 7.00 |
| C[C@H]1CCC[C@]2(C1)C1=C(N=NC1)NC1=C2C(=O)CC(C)(C)C1 [US20250313563, Compound 893319] | 6.00 to 7.00 | 6.00 to 7.00 |
| CC[C@@]1(c2ccccc2)C2=CN=NC2NC2=C1C(=O)[C@@H](C)C[C@H]2C (stereo partly specified) [US20250313563, Compound 909218] | < 5.30 | < 5.30 |
| Cc1ccc(C(=O)N2CC3(C2)CC2(CO3)C3=C(N=NC3)NC3=C2C(=O)CC(C)(C)C3)cc1C (stereo unspecified) [US20250313563, Compound 947286] | > 7.00 | > 7.00 |
| CC[C@@]1(c2cccc(Br)c2)C2=C(C[C@H](C)CC2=O)NC2N=NC(C(F)(F)F)=C21 (stereo partly specified) [US20250313563, Compound 828850] | 6.00 to 7.00 | 6.00 to 7.00 |
| CCC1(c2cccc(C(C)C)c2)C2=C(N=NC2)NC2=C1C(=O)NC(C)(C)C2 (stereo unspecified) [US20250313563, Compound 949326] | > 7.00 | 6.00 to 7.00 |
| CC1(C)CC(=O)C2=C(C1)NC1=C(CN=N1)C21CN(C2COC2)C1 [US20250313563, Compound 912076] | 6.00 to 7.00 | 5.30 to 6.00 |
| CC1(C)CC(=O)C2=C(C1)NC1=C(CN=N1)[C@@]21CCN(S(=O)(=O)CC2CC2)C1 [US20250313563, Compound 951724] | > 7.00 | > 7.00 |

The next lines start with the values.

| pIC50 [1] | pIC50 [2] | SMILES |
| --- | --- | --- |
| < 5.30 | < 5.30 | CC[C@]1(c2cccc(N3CCCCC3)c2)C2=CN=NC2NC2=C1C(=O)CC(C)(C)C2 (stereo partly specified) [US20250313563, Compound 810371] |
| > 7.00 | 6.00 to 7.00 | CC[C@@]1(c2cccc(-c3cnn(C4CC4(F)F)c3)c2)C2=CN=NC2NC2=C1C(=O)NC(C)(C)C2 (stereo partly specified) [US20250313563, Compound 950060] |
| 6.00 to 7.00 and > 7.00 | > 7.00 and 6.00 to 7.00 | CCC1(c2cccc(-c3ccnc(C(F)(F)F)c3)c2)C2=CN=NC2NC2=C1C(=O)CC(C)(C)C2 (stereo unspecified) [US20250313563, Compound 913350] |
| > 7.00 | > 7.00 | CCC1(c2cccc(N(C)C(=O)Cc3ccccc3)c2)C2=CN=NC2NC2=C1C(=O)CC(C)(C)C2 (stereo unspecified) [US20250313563, Compound 912071] |
| > 7.00 | 6.00 to 7.00 | CCC1(c2cccc(Oc3cncnc3)c2)C2=CN=NC2NC2=C1C(=O)CC(C)(C)C2 (stereo unspecified) [US20250313563, Compound 917212] |
| > 7.00 | > 7.00 | CC[C@]1(c2cccc(S(=O)(=O)C3CC3)c2)C2=C(CC(C)(C)CC2=O)NC2N=NC(C(F)(F)F)=C21 (stereo partly specified) [US20250313563, Compound 945715] |
| 6.00 to 7.00 | > 7.00 | CC(C)(C)CC1=C2C(N=N1)NC1=C(C(=O)CC(C)(C)C1)[C@]21CCc2cc(F)ccc21 (stereo partly specified) [US20250313563, Compound 782424] |
| 6.00 to 7.00 | 5.30 to 6.00 | CC[C@]1(c2ccc(C)cc2)C2=CN=NC2NC2=C1C(=O)CC(C)(C)C2 (stereo partly specified) [US20250313563, Compound 789457] |
| > 7.00 | > 7.00 | CC[C@]1(c2cccc([C@H]3CCOC3)c2)C2=CN=NC2NC2=C1C(=O)CC(C)(C)C2 (stereo partly specified) [US20250313563, Compound 889556] |
| 6.00 to 7.00 | 5.30 to 6.00 | CC[C@]1(c2cccc(-c3cnn(C)c3)c2)C2=C(CC(C)(C)CC2=O)NC2N=NC(C)=C21 (stereo partly specified) [US20250313563, Compound 913038] |
| 5.30 to 6.00 and < 5.30 | < 5.30 | CC[C@]1(c2cccc(-c3ccnn3C)c2)C2=C(CC(C)(C)CC2=O)NC2N=NC(C)=C21 (stereo partly specified) [US20250313563, Compound 913046] |
| > 7.00 | > 7.00 | CC[C@@]1(c2cccc(-c3ccnc4ccc(OC)cc34)c2)C2=CN=NC2NC2=C1C(=O)NC(C)(C)C2 (stereo partly specified) [US20250313563, Compound 948527] |
| > 7.00 | 6.00 to 7.00 | CCC1(c2cccc(-c3ccnc4c3CCC4)c2)C2=CN=NC2NC2=C1C(=O)NC(C)(C)C2 (stereo unspecified) [US20250313563, Compound 947676] |
| < 5.30 | < 5.30 | CC[C@@]1(c2cccc(CN(C)c3ccnc(C)c3)c2)C2=CN=NC2NC2=C1C(=O)CC(C)(C)C2 (stereo partly specified) [US20250313563, Compound 932665] |
| > 7.00 | > 7.00 | CCC1(c2cccc(Cl)c2)C2=C(CC(C)(C)CC2=O)NC2N=NC(C(F)(F)F)=C21 (stereo unspecified) [US20250313563, Compound 789566] |
| > 7.00 | 6.00 to 7.00 | CCC1(c2cccc(N3CCCC3=O)c2)C2=CN=NC2NC2=C1C(=O)CC(C)(C)C2 (stereo unspecified) [US20250313563, Compound 865171] |
| > 7.00 | > 7.00 | CCC1(c2cccc(-c3ccncc3OC)c2)C2=CN=NC2NC2=C1C(=O)CC(C)(C)C2 (stereo unspecified) [US20250313563, Compound 932627] |
| 6.00 to 7.00 | < 5.30 | Cn1nccc1-c1cccc2c1CCC[C@]21C2=CN=NC2NC2=C1C(=O)CC(C)(C)C2 (stereo partly specified) [US20250313563, Compound 945552] |
| > 7.00 | > 7.00 | CCC1(c2cccc(C(F)F)c2)C2=CN=NC2NC2=C1C(=O)CC(C)(C)C2 (stereo unspecified) [US20250313563, Compound 819564] |
| > 7.00 | 6.00 to 7.00 | CC[C@]1(c2ccccc2)C2=CN=NC2NC2=C1C(=O)CC1(CCC1)C2 (stereo partly specified) [US20250313563, Compound 819573] |
| > 7.00 | > 7.00 and 6.00 to 7.00 | CCC1(c2cccc(-c3c(C)nnn3C)c2)C2=CN=NC2NC2=C1C(=O)CC(C)(C)C2 (stereo unspecified) [US20250313563, Compound 943996] |
| > 7.00 | > 7.00 | CC1(C)CC(=O)C2=C(C1)NC1N=NC=C1[C@]21CCCc2c(-c3ccncc3)cccc21 (stereo partly specified) [US20250313563, Compound 945548] |
| > 7.00 | 6.00 to 7.00 | CCC1(c2cccc(N(C)C(=O)c3ccccc3)c2)C2=CN=NC2NC2=C1C(=O)CC(C)(C)C2 (stereo unspecified) [US20250313563, Compound 909201] |
| > 7.00 | 6.00 to 7.00 | CCC1(c2cccc(C(F)(F)F)c2)C2=CN=NC2NC2=C1C(=O)N(c1cncnc1)CC2 (stereo unspecified) [US20250313563, Compound 948238] |
| > 7.00 | 6.00 to 7.00 | CCn1nc(C)cc1S(=O)(=O)N1CCC2(CC1)C1=CN=NC1NC1=C2C(=O)CC(C)(C)C1 (stereo unspecified) [US20250313563, Compound 947609] |
| > 7.00 | 6.00 to 7.00 | CCC1(c2cccc(N(C)c3cccc(F)n3)c2)C2=CN=NC2NC2=C1C(=O)CC(C)(C)C2 (stereo unspecified) [US20250313563, Compound 918274] |
| > 7.00 | 5.30 to 6.00 | CCC1(c2cccc(-c3ccnc(C)c3)c2)C2=CN=NC2NC2=C1C(=O)NC(C)(C)C2 (stereo unspecified) [US20250313563, Compound 914930] |
| > 7.00 | 6.00 to 7.00 | CCC1(c2cccc(C(F)F)c2)C2=CN=NC2NC2=C1C(=O)NC(C)(C)C2 (stereo unspecified) [US20250313563, Compound 947864] |
| > 7.00 | 6.00 to 7.00 | CCC1(c2cccc(-c3cnnc(C)c3)c2)C2=CN=NC2NC2=C1C(=O)CC(C)(C)C2 (stereo unspecified) [US20250313563, Compound 926844] |
